Assay results published in the NIST ThermoML archive (doi:10.1007/s10765-008-0535-5).

Assay: molar heat capacity at constant volume; wn = mass fraction of the nth substance listed
Conditions: Liquid, Vacuum adiabatic calorimetry, w2 = 0.5111

FC(F)C(F)(F)F [pentafluoroethane] + FCF
Conditions | molar heat capacity at constant volume [J/K/mol]
268.15 K, 3423 kPa | 62.96
269.15 K, 4259 kPa | 64.11
270.15 K, 5065 kPa | 63.82
270.15 K, 5095 kPa | 63.25
270.15 K, 5157 kPa | 63.82
271.15 K, 5903 kPa | 64.9
271.15 K, 5931 kPa | 64.04
271.15 K, 5992 kPa | 62.96
272.15 K, 6740 kPa | 64.18
272.15 K, 6767 kPa | 64.61
272.15 K, 6828 kPa | 63.25
273.15 K, 7576 kPa | 64.54
273.15 K, 7602 kPa | 63.82
273.15 K, 7662 kPa | 64.04
274.15 K, 8411 kPa | 65.12
274.15 K, 8437 kPa | 65.19
274.15 K, 8496 kPa | 63.82
275.15 K, 9245 kPa | 64.9
275.15 K, 9272 kPa | 64.9
275.15 K, 9328 kPa | 63.75
276.15 K, 10082 kPa | 65.77
276.15 K, 10107 kPa | 64.83
276.15 K, 10161 kPa | 64.25
277.15 K, 10917 kPa | 65.84
277.15 K, 10942 kPa | 65.62
277.15 K, 10993 kPa | 65.05
278.15 K, 11753 kPa | 66.05
278.15 K, 11776 kPa | 65.55
278.15 K, 11824 kPa | 64.4
279.15 K, 12587 kPa | 65.69
279.15 K, 12611 kPa | 66.12
279.15 K, 12657 kPa | 65.33
280.15 K, 13423 kPa | 66.92
280.15 K, 13444 kPa | 65.12
280.15 K, 13488 kPa | 64.9
281.15 K, 14258 kPa | 65.69
281.15 K, 14277 kPa | 66.63
281.15 K, 14319 kPa | 65.69
282.15 K, 15091 kPa | 66.92
282.15 K, 15110 kPa | 66.27
282.15 K, 15148 kPa | 65.55
283.15 K, 15926 kPa | 66.63
283.15 K, 15943 kPa | 66.05
283.15 K, 15978 kPa | 64.76
284.15 K, 16759 kPa | 66.56
284.15 K, 16775 kPa | 66.34
284.15 K, 16808 kPa | 66.05
285.15 K, 17592 kPa | 67.2
285.15 K, 17606 kPa | 67.06
285.15 K, 17637 kPa | 65.77
286.15 K, 18423 kPa | 66.77
286.15 K, 18437 kPa | 66.7
286.15 K, 18467 kPa | 66.41
287.15 K, 19253 kPa | 66.2
287.15 K, 19268 kPa | 66.7
287.15 K, 19297 kPa | 65.19
288.15 K, 20083 kPa | 67.35
288.15 K, 20097 kPa | 67.28
288.15 K, 20124 kPa | 66.05
289.15 K, 20914 kPa | 67.35
289.15 K, 20926 kPa | 66.7
289.15 K, 20951 kPa | 66.27
290.15 K, 21743 kPa | 67.49
290.15 K, 21755 kPa | 67.28
290.15 K, 21778 kPa | 66.12
291.15 K, 22571 kPa | 67.28
291.15 K, 22583 kPa | 66.7
291.15 K, 22607 kPa | 66.05
292.15 K, 23400 kPa | 67.35
292.15 K, 23410 kPa | 67.35
292.15 K, 23433 kPa | 66.63
293.15 K, 24226 kPa | 67.13
293.15 K, 24236 kPa | 67.06
293.15 K, 24257 kPa | 66.2
294.15 K, 25053 kPa | 67.42
294.15 K, 25062 kPa | 67.42
294.15 K, 25082 kPa | 67.28
295.15 K, 25878 kPa | 66.84
295.15 K, 25887 kPa | 67.13
295.15 K, 25903 kPa | 65.05
296.15 K, 5585 kPa | 69.44
296.15 K, 5620 kPa | 68.57
296.15 K, 5667 kPa | 65.84
296.15 K, 26704 kPa | 67.92
296.15 K, 26711 kPa | 66.99
296.15 K, 26725 kPa | 66.48
297.15 K, 6213 kPa | 68.72
297.15 K, 6246 kPa | 68.86
297.15 K, 6292 kPa | 68.14
297.15 K, 27528 kPa | 67.28
297.15 K, 27534 kPa | 66.63
297.15 K, 27546 kPa | 66.2
298.15 K, 6841 kPa | 70.08
298.15 K, 6872 kPa | 68.28
298.15 K, 6917 kPa | 67.78
298.15 K, 28352 kPa | 66.99
298.15 K, 28357 kPa | 66.84
298.15 K, 28366 kPa | 65.48
299.15 K, 7469 kPa | 69.08
299.15 K, 7499 kPa | 69.29
299.15 K, 7541 kPa | 67.28
299.15 K, 29176 kPa | 67.56
299.15 K, 29179 kPa | 67.49
299.15 K, 29186 kPa | 66.05
300.15 K, 8097 kPa | 69.15
300.15 K, 8124 kPa | 67.85
300.15 K, 8166 kPa | 68.07
300.15 K, 29998 kPa | 66.56
300.15 K, 29999 kPa | 65.55
300.15 K, 30003 kPa | 66.7
301.15 K, 8725 kPa | 68.57
301.15 K, 8750 kPa | 68.07
301.15 K, 8791 kPa | 67.92
302.15 K, 9353 kPa | 68.14
302.15 K, 9377 kPa | 68.86
302.15 K, 9417 kPa | 66.99
303.15 K, 9980 kPa | 68.57
303.15 K, 10003 kPa | 68.28
303.15 K, 10042 kPa | 67.2
304.15 K, 10607 kPa | 68.72
304.15 K, 10629 kPa | 66.92
304.15 K, 10667 kPa | 67.49
305.15 K, 11234 kPa | 66.92
305.15 K, 11256 kPa | 67.42
305.15 K, 11292 kPa | 66.05
306.15 K, 11861 kPa | 68.14
306.15 K, 11881 kPa | 66.99
306.15 K, 11917 kPa | 66.2
307.15 K, 12487 kPa | 66.77
307.15 K, 12507 kPa | 67.28
307.15 K, 12541 kPa | 66.92
308.15 K, 13114 kPa | 67.06
308.15 K, 13133 kPa | 67.35
308.15 K, 13165 kPa | 65.84
309.15 K, 13740 kPa | 66.92
309.15 K, 13758 kPa | 67.13
309.15 K, 13790 kPa | 66.12
310.15 K, 14367 kPa | 67.13
310.15 K, 14384 kPa | 66.05
310.15 K, 14414 kPa | 65.91
311.15 K, 14992 kPa | 66.48
311.15 K, 15009 kPa | 66.2
311.15 K, 15038 kPa | 65.84
312.15 K, 15618 kPa | 64.9
312.15 K, 15634 kPa | 67.13
312.15 K, 15662 kPa | 65.26
313.15 K, 16243 kPa | 66.7
313.15 K, 16259 kPa | 66.2
313.15 K, 16286 kPa | 65.26
314.15 K, 16869 kPa | 66.2
314.15 K, 16883 kPa | 65.98
314.15 K, 16910 kPa | 65.26
315.15 K, 17493 kPa | 65.77
315.15 K, 17507 kPa | 65.84
315.15 K, 17534 kPa | 64.54
316.15 K, 18118 kPa | 65.77
316.15 K, 18131 kPa | 65.12
316.15 K, 18158 kPa | 64.9
317.15 K, 18743 kPa | 65.48
317.15 K, 18755 kPa | 64.33
317.15 K, 18781 kPa | 64.47
318.15 K, 19367 kPa | 64.97
318.15 K, 19379 kPa | 64.9
318.15 K, 19404 kPa | 64.25
319.15 K, 19990 kPa | 65.05
319.15 K, 20003 kPa | 65.12
319.15 K, 20027 kPa | 64.61
320.15 K, 20613 kPa | 63.75
320.15 K, 20627 kPa | 65.77
320.15 K, 20649 kPa | 64.33
321.15 K, 21236 kPa | 64.69
321.15 K, 21250 kPa | 64.69
321.15 K, 21272 kPa | 63.61
322.15 K, 21858 kPa | 64.69
322.15 K, 21873 kPa | 63.9
322.15 K, 21894 kPa | 64.04
323.15 K, 22480 kPa | 63.9
323.15 K, 22495 kPa | 63.9
323.15 K, 22516 kPa | 63.61
324.15 K, 23103 kPa | 64.33
324.15 K, 23117 kPa | 64.97
324.15 K, 23137 kPa | 62.6
325.15 K, 23725 kPa | 64.25
325.15 K, 23738 kPa | 63.39
325.15 K, 23758 kPa | 63.1
326.15 K, 24347 kPa | 64.33
326.15 K, 24361 kPa | 64.9
326.15 K, 24379 kPa | 62.74
327.15 K, 24970 kPa | 63.75
327.15 K, 24981 kPa | 63.1
327.15 K, 25000 kPa | 63.68
328.15 K, 25590 kPa | 62.96
328.15 K, 25601 kPa | 63.1
328.15 K, 25620 kPa | 62.17
